The record followed here is ChEMBL document CHEMBL1201862, “PubChem BioAssay data set” (2004).

Assay in all cases: DTP human tumour cell line panel, 48 h
Test [1] deals with A549.
Test [2] relates to CCRF-CEM.
Test [3] deals with COLO 205.
Test [4] has as its system DU-145.
For test [5], the system named is EKVX.
Test [6] concerns HCT-116.
Test [7] concerns HL-60.
The subject of test [8] is IGROV-1.
For test [9], the system named is KM12.
For test [10], the system named is MDA-MB-231.
The subject of test [11] is Malme-3M.
For test [12], the system named is NCI-H460.
Test [13] concerns NCI-H522.
Test [14] deals with NCI/ADR-RES.
The test system of test [15] is OVCAR-3.
The test system of test [16] is OVCAR-4.
The test system of test [17] is RXF 393.
In test [18] the test system is SNB-19.
In test [19] the test system is UACC-257.
For test [20], the system named is UO-31.

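48-hour exposure; five concentrations; linearly interpolated endpoints. At the GI50, growth is halved.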 Calls of active or inactive are those of the source. Rule as the data show it: active = GI50 up to about 1.1 µM and inactive = higher.

As for `Cc1ccc([N+](=O)[O-])c2c(NCCC[N+](C)(C)[O-])c3ccccc3nc12`, the GI50 (usually the concentration giving 50% growth inhibition) in test [1] was 1.53 µM (inactive); in [2] it was 2.07 µM (inactive); in test [3] it was 1.02 µM (active); in test [4], 1.43 µM (inactive); in test [5], 1.11 µM (active); in [6] it was 1.52 µM (inactive). The GI50 in [7] is 4 µM (inactive); in test [8] it was 1.19 µM (inactive); in test [9], 1.79 µM (inactive); in test [10], 1.86 µM (inactive); in test [11], 1.22 µM (inactive); in [12], 0.716 µM (active). The GI50 is 0.204 µM (active) in [13]; > 95.3 µM (inactive) in [14]; 2.19 µM (inactive) in [15]; 2.02 µM (inactive) in [16]; 1.35 µM (inactive) in test [17]; 1.17 µM (inactive) in test [18]. For the same compound, the GI50 is 2.41 µM (inactive) in test [19] and 16.1 µM (inactive) in test [20].

For the compound `CCOC(=O)C1=C(C)N(c2ccc(C)cc2)C2(O)C=CC(O)=C3C(=O)c4ccccc4C(=O)C312` (stereo not given), the GI50 in test [1] is 37.8 µM (inactive); in [2], 5.05 µM (inactive); in [3], 32.4 µM (inactive); in [4], 23.6 µM (inactive); in test [5], 39.3 µM (inactive); in [6], 48.5 µM (inactive). Further, the concentration for 50% growth inhibition (GI50) is < 0.01 µM (active) in test [7]; 19.5 µM (inactive) in [8]; 35.6 µM (inactive) in test [9]; 34.4 µM (inactive) in test [10]; 20.6 µM (inactive) in [11]; 34.2 µM (inactive) in [12]. Also, the GI50 in [13] is 16.1 µM (inactive); in test [14], 8.24 µM (inactive); in test [15] it was 34.9 µM (inactive); in [16], 25 µM (inactive); in [17], 28.8 µM (inactive); in [18] it was 24.4 µM (inactive). In addition, the GI50 in [19] is 22.9 µM (inactive); in test [20], 17.7 µM (inactive).

Turning to `OCc1ccn2c1[C@@H](O)CC2`, the GI50 in test [1], in [2], in test [3], in test [4], in test [5] and in test [6] was > 100 µM (inactive) in each case. In addition, the GI50 in test [7], in test [8], in test [9], in test [10], in [11] and in test [12] was > 100 µM (inactive) in each case. Besides, the GI50 in test [13] was 1.55 µM (inactive); in test [14], > 100 µM (inactive); in test [15] it was > 100 µM (inactive); in test [16], > 100 µM (inactive); in test [17], > 100 µM (inactive); in test [18], > 100 µM (inactive). The GI50 in test [19] was > 100 µM (inactive).

With `Nc1cc(CO)cc(Nc2c3ccccc3nc3ccccc23)c1`, the GI50 in test [1] was 18.2 µM (inactive); in test [2], 6.78 µM (inactive); in test [3], 11.6 µM (inactive); in test [4] it was 27.3 µM (inactive); in test [5], 16.8 µM (inactive); in [6], 15.1 µM (inactive). In addition, the GI50 in [7] is > 100 µM (inactive); in [8], 16.9 µM (inactive); in [9], 16.3 µM (inactive); in test [10], 12.1 µM (inactive); in test [11], 16.5 µM (inactive); in [12], 25.7 µM (inactive). Also, the GI50 in [13] is 6.59 µM (inactive); in [14], 17.7 µM (inactive); in [15], 18.2 µM (inactive); in [16], 16 µM (inactive); in test [17] it was 16.8 µM (inactive); in test [19], 15.1 µM (inactive). The GI50 in test [20] is 18.4 µM (inactive).

`Nc1c(S(=O)(=O)O)cc(Nc2cccc(S(=O)(=O)/C=C/S(=O)(=O)O)c2)c2c1C(=O)c1ccccc1C2=O`: the GI50 in test [1], in test [2], in test [3], in test [4], in [5] and in [6] was > 100 µM (inactive) throughout. The GI50 in test [7], in test [8], in [9], in test [10], in [11] and in test [12] was > 100 µM (inactive) each time. Also, the GI50 in test [13] was > 100 µM (inactive); in [14], > 100 µM (inactive); in [15], > 100 µM (inactive); in [16], > 100 µM (inactive); in test [17] it was 14.2 µM (inactive); in test [18] it was > 100 µM (inactive). For the same compound, the GI50 in test [19] is > 100 µM (inactive).

Turning to `COc1cc2c3cc1Oc1c(OC)c(OC)cc4c1C(=NCC4)Cc1ccc(cc1)Oc1cc(ccc1O)C[C@H]3N(C)CC2`, the GI50 in [1] was 37.5 µM (inactive); in test [2], 30 µM (inactive); in [3], 13.5 µM (inactive); in test [4], 25.4 µM (inactive); in test [5] it was 23.2 µM (inactive); in [6], 12 µM (inactive). Besides, the GI50 in test [7] was 14 µM (inactive); in [8], 25.4 µM (inactive); in [9], 15 µM (inactive); in test [10], 12.9 µM (inactive); in test [11] it was 0.601 µM (active); in test [12] it was 15.6 µM (inactive). The GI50 in [13] is 10.7 µM (inactive); in [14], 13.6 µM (inactive); in test [15], 17.7 µM (inactive); in test [16], 16.1 µM (inactive); in test [17], 10 µM (inactive); in test [18] it was 23.4 µM (inactive). Besides, the GI50 in [19] was 16 µM (inactive).

Turning to `O=C(O)C1(Nc2ccc(Cl)cc2)CCCC1`, the GI50 was > 100 µM (inactive) in test [1]; > 100 µM (inactive) in test [2]; 33 µM (inactive) in [3]; > 100 µM (inactive) in test [4]; > 100 µM (inactive) in test [5]; 76.4 µM (inactive) in test [6]. Besides, the GI50 in [7] is 77.8 µM (inactive); in [8], > 100 µM (inactive); in test [9] it was > 100 µM (inactive); in test [10], > 100 µM (inactive); in test [11], > 100 µM (inactive); in [12] it was > 100 µM (inactive). Further, the GI50 in test [13], in [14], in test [15], in [16], in test [17] and in [18] was > 100 µM (inactive) each time. The GI50 in [20] was > 100 µM (inactive).
